Source: paper PMC4180634, “Pharmacokinetic Study and Bioavailability of a Novel Synthetic Trioxane Antimalarial Compound 97/63 in Rats” (Malaria Research and Treatment, 2014)
Where two headings read alike, the source gives them in different places.

What was measured:
malarial parasites [1] = tested on: malarial parasites; set-up: method as in earlier work; conditions: cited from earlier work
malarial parasites [2] = tested on: malarial parasites; set-up: method as in earlier work; conditions: cited from earlier work; remark: listed apart in the source
[3] = Stability studies of 97/63 in rat serum samples (long-term, freeze-thaw, dry residue, autoinjector); type: physicochemical
Protocol: Long-term stability of 97/63 was carried by preparing QC samples at low, medium, and high concentrations in three replicates for four different days and stored at -60°C. These sets of samples were analyzed after 0, 7, 15, and 30 days of storage and their concentrations were read from the respective calibration standard curve. The results are expressed as % deviation from 0 days concentration. F-T stability of 97/63 in serum samples was determined by preparing QC of strengths low (10 ng mL^-1), medium (100 ng mL^-1), and high (500 ng mL^-1) in three replicates for four different days. One set of three concentrations was analyzed on day of preparation (no F-T cycle) before storing the remaining sets at -60°C. Other sets were analyzed after 1, 2, and […] cycles. Thawing was achieved by keeping the sealed tubes at room temperatures for 30 min. The results are expressed as % deviation with initial concentration. The effect of storage on dry residue stability was determined at QC 10 ng mL^-1 (low), 100 ng mL^-1 (medium), and 500 ng mL^-1 (high) concentration levels. All the samples (three replicates of three concentrations × 4 sets) were prepared and dry residue was stored in glass tubes sealed with aluminum foil and then with parafilm. One set in triplicate was reconstituted on day 1 with mobile phase and analyzed on the same day (without storage). The remaining sets were similarly analyzed on days 2, 4, and 8 and results are expressed as % deviation. After sample preparation, stability of 97/63 in the autoinjector was evaluated for 4 h; the maximum duration for which the sample may have to wait in the autoinjector tray for pending analysis and results are expressed in % deviation with initial injection (t = 0 h).

[4] = Single dose pharmacokinetic study after oral and intravenous administration in male rats (serum, HPLC-UV); type: in vivo, Sprague-Dawley rats; conditions: for half-life: two-compartment model
Text: Male Sprague-Dawley (SD) rats weighing 250 ± 25 g for this study were obtained from institutional Laboratory Animal Division, CDRI, Lucknow, prior to study. Rats were given standard pellets for feeding and filtered water was given ad libitum and they were housed in well ventilated cages which were kept at room temperature on a regular 12-h light-dark cycle. Animals were kept in accordance with the guidelines of local ethical committee (Ethical approval 58/08/PKM/IAEC) for animal experimentation and principles of the guide for care and use of laboratory animals were followed (Department of Health Education and Welfare, number [NIH] 85-32). Oral and IV study was carried out in two sets (I and II). Each set contained two groups, that is, groups A and B. PK was carried out by dosing 97/63 in two groups (A and B) containing four rats in each group for sparse sampling. Young and healthy male SD rats weighing 250 ± 25 g (obtained from Laboratory Animal Division of CDRI) were housed in well ventilated cages and kept at room temperature 25 ± 2°C on a regular 12-h light-dark cycle. Animals were cared for in accordance with the principles of guide for care and use of laboratory animals. Animals in oral study group were fasted overnight to minimize the effects of food on pharmacokinetic profile of 97/63. Intravenous dose was administered as a single bolus injection through tail vein using a 26 G needle after dilating the tail vein [16]. The oral dose was administered using a 2 mL syringe and feeding needle. After intravenous and oral dose administration, rats were also monitored for physiological behavior. […] The intravenous formulation for single dose, 18 mg kg^−1, was a solution of 97/63 in DMSO. The oral formulation for single dose, 72 mg kg^−1, was also a solution of 97/63 in DMSO. The formulations were subjected to quality control (QC) checks to ensure their strength and content uniformity prior to use. The strength of formulation for intravenous and oral administration was 18 mg mL^−1 and 36 mg mL^−1. Compound 97/63 formulated in DMSO was administered to overnight fasted rats by oral and intravenous route. The dose volume factor for intravenous administration was 1 mL kg^−1, with 250 g rat receiving 0.25 mL, and for oral administration it was 2 mL kg^−1, with 250 g rat receiving 0.5 mL of formulation. Sparse sampling approach was used to collect blood samples by cardiac puncture. The total volume of blood withdrawn within 24 hours was less than 5% of blood volume. Blood samples were collected in glass tubes at 0.083, 0.25, 0.5, 0.75, 1, 1.5, 2, 3, 4, 6, 8, 10, 18, 24, 48, and 60 h after oral dose. Blood samples were stored at room temperature for 30 min to separate the serum. Serum was separated by centrifugation at 1500 ×g for 10 min and stored at –60°C until analysis. Analysis was performed within 30 days of sample collection. Curve fitting and estimation of pharmacokinetic parameters of 97/63 were carried out using WinNonlin (5.1) software program (Pharsight Corp, USA). The data were tested using Gauss-Newton algorithm, with noncompartment, one compartment, and two-compartment models after applying different weighting factor to the observed values of the concentrations. Decision on the suitability of a particular compartment model in explaining the data was undertaken based on the Akaike or Schwarz information criterion, correlation coefficient, and scatter of residuals.

log P = type: physicochemical
[5] = Sprague-Dawley, rat, oral 72 mg kg^−1, male rats, serum

Structure (SMILES): C=C(c1ccc(OC(C)(C)CO)cc1)C1COC2(OO1)C1CC3CC(C1)CC2C3 (stereo not shown) [97/63]
- potency against malarial parasites in vivo (malarial parasites [1]): good potency
- potency against malarial parasites in vitro (malarial parasites [2]): good potency
- reinjection (autoinjector) stability, deviation ([3]; 4 h gap, samples stored at 4°C): less than 10%
- dry residue stability after extraction ([3]; 8 days stored at −60°C): stable
- long-term stability in serum ([3]; 30 days, normal serum stored at −60°C): stable
- freeze-thaw stability in serum ([3]; three F-T cycles): stable
- clearance ([4]; Sprague-Dawley, rat, serum, intravenous 18 mg kg^−1, male rats): 148 mL/min/kg
- Vd ([4]; Sprague-Dawley, rat, serum, intravenous 18 mg kg^−1, male rats, read-out: Vd): 135 ± 11.2 L/kg
- AUC(0-inf) ([4]; Sprague-Dawley, rat, intravenous 18 mg kg^−1, male rats, serum): 2030 ± 574 ng·h/mL
- C0 ([4]; Sprague-Dawley, rat, intravenous 18 mg kg^−1, male rats, serum, mean ± SD, N = 4): 1800 ± 330 ng/mL
- AUC(0-inf) [4, 5]: 1270 ± 27 ng·h/mL
- Tmax [4, 5]: 1 ± 0.7 h
- Cmax ([4]; Sprague-Dawley, rat, oral 72 mg kg^−1, male rats, serum, mean ± SD, N = 4): 229 ± 64.3 ng/mL
- metabolite peaks in rat serum ([4]; after oral and intravenous dose, HPLC-UV): No metabolite peaks were observed
- half-life ([4]; male, Sprague-Dawley, rat, serum, iv, 18 mg/kg, intravenous 18 mg kg^−1, male rats, read-out: T 1/2 (α) distribution half-life (converted)): 0.45 ± 0.08 h
- half-life ([4]; male, Sprague-Dawley, rat, serum, iv, 18 mg/kg, intravenous 18 mg kg^−1, male rats, read-out: T 1/2 (β) elimination half-life (converted)): 10.6 ± 0.16 h
- bioavailability ([4]; male, Sprague-Dawley, rat, serum, oral, 72 mg kg^−1, oral 72 mg kg^−1 vs intravenous 18 mg kg^−1, male rats, read-out: % bioavailability (absolute)): ~16%
- half-life ([4]; male, Sprague-Dawley, rat, serum, po, 72 mg/kg, oral 72 mg kg^−1, male rats, read-out: T 1/2 (α) distribution half-life (converted)): 0.84 ± 0.14 h
- half-life ([4]; male, Sprague-Dawley, rat, serum, po, 72 mg/kg, oral 72 mg kg^−1, male rats, read-out: T 1/2 (β) elimination half-life (converted)): 10.6 ± 0.2 h
- Cl ([4]; oral 72 mg kg^−1, male rats): 187 ± 1.2 mL/min/kg
- Vd ([4]; oral 72 mg kg^−1, male rats): 172.31 ± 28.59 L/kg
- absorption rate constant (K a) ([4]; oral 72 mg kg^−1, male rats): 0.82 h⁻¹
- clinical symptoms after dosing ([4]; oral 72 mg kg^−1 and intravenous 18 mg kg^−1, male rats, sampling period): No abnormal clinical symptoms
- % bioavailability (absolute) ([4]; oral 72 mg kg^−1 vs intravenous 18 mg kg^−1, male rats): 15.66%
- logP (log P): < 3.5
